Source: ChEMBL document CHEMBL4325884, “Investigation of the molecular characteristics of bisindole inhibitors as HIV-1 glycoprotein-41 fusion inhibitors” (Eur J Med Chem, 2019)

Tests used:
[1] = Cytotoxicity against human PBMC by MTS or resazurin dye based assay; type: cell-based
[2] = test system: Human immunodeficiency virus 1; assay: Antiviral activity against HIV-1 Bal infected in human MAGI-CCR5 cells assessed as reduction in viral infection after 48 hrs by fluorescence based beta-galactosidase reporter gene assay; type: functional, organism-based; conditions: Human immunodeficiency virus 1, Bal, MAGI-CCR5, 48 h
[3] = test system: Human immunodeficiency virus 1; assay: Antiviral activity against HIV-1 3B infected in human MAGI-CXCR4 cells assessed as reduction in viral infection after 48 hrs by fluorescence based beta-galactosidase reporter gene assay; type: functional, organism-based; conditions: Human immunodeficiency virus 1, 3B
[4] = biological target: Envelope glycoprotein gp160 (Human immunodeficiency virus 1, UniProt Q6QLK5); assay: Binding affinity to HIV1 N-terminal 2,2-bipyridine-5-carboxylate-capped Envelope glycoprotein gp41 Fe2(env2.0)3 by C18FL probe based fluorescence quenching assay
[5] = Cytotoxicity against human MAGI cells by MTS or resazurin dye based assay; type: cell-based

Envelope glycoprotein gp160, sequence (Q6QLK5 whole entry): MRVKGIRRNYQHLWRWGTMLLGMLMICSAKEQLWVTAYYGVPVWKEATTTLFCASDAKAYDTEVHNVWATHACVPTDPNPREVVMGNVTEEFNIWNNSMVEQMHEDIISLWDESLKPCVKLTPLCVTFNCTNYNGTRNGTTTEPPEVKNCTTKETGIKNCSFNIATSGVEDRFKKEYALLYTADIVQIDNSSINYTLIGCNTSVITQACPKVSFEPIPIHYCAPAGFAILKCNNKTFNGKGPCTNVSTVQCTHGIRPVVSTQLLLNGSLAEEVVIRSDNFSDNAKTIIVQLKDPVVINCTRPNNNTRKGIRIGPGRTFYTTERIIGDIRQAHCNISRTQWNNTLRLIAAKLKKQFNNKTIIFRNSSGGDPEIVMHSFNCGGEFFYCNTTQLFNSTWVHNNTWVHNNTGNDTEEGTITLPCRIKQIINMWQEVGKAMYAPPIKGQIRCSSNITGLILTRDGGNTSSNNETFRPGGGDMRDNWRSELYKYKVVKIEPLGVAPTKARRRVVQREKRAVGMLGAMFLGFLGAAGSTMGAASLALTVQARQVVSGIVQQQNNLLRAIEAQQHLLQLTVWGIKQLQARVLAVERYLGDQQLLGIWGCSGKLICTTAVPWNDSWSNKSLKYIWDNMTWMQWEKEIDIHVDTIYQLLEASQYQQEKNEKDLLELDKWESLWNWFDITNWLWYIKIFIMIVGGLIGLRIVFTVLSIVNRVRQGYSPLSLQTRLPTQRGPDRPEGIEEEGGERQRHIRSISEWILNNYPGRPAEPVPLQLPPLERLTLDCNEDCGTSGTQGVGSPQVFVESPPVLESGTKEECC

SMILES	CC50 [1] [µM]	IC50 [2] [µM]	IC50 [3] [µM]	Ki [4] [µM]	CC50 [5] [µM]
COc1cccc(CNc2cccc(-c3ccc4ccn(Cc5cccc(C(=O)O)c5)c4c3)c2)c1	> 10	> 20	> 20	1.5	–
CC(C)(C)OC(=O)n1ccc2ccc(-c3ccc4ccn(Cc5cccc(C(=O)O)c5)c4c3)cc21	> 20	0.9	1	1.9	–
Cn1ccc2ccc(-c3ccc4cnn(Cc5cc(F)cc(C(=O)O)c5)c4c3)cc21	> 20	> 20	> 20	2.1	–
CC(C)(C)OC(=O)Nc1cccc(Cn2ccc3ccc(-c4ccc5ccn(Cc6cccc(C(=O)O)c6)c5c4)cc32)c1	> 20	0.4	0.5	1.5	–
Cc1ccc(S(=O)(=O)n2ccc3ccc(-c4ccc5ccn(Cc6cccc(C(=O)O)c6)c5c4)cc32)cc1	> 50	0.8	0.9	1.2	–
COC(=O)c1cccc(Cn2ccc3ccc(-c4ccc5cnn(Cc6cccc(C(=O)O)c6)c5c4)cc32)c1	> 20	3.1	2.5	3.2	–
CC(C)(C)OC(=O)N1CCC(Cn2ccc3ccc(-c4ccc5ccn(Cc6cccc(C(=O)O)c6)c5c4)cc32)CC1	> 20	0.6	0.6	1.2	–
Cn1cc2ccc(-c3ccc4ccn(Cc5cc(F)cc(C(=O)O)c5)c4c3)cc2n1	> 20	14	> 20	6.4	–
CN(C(=O)OC(C)(C)C)c1cccc(-c2ccc3ccn(Cc4cccc(C(=O)O)c4)c3c2)c1	> 20	15.6	11.3	1.6	–
COc1cccc(CN(C(=O)OC(C)(C)C)c2cccc(-c3ccc4ccn(Cc5cccc(C(=O)O)c5)c4c3)c2)c1	> 10	5.5	4.2	0.45	–
Nc1ccc(Cn2ccc3ccc(-c4ccc5ccn(Cc6cccc(C(=O)O)c6)c5c4)cc32)cc1	> 20	1.1	1.3	3.1	–
COc1cccc(CN(C)c2cccc(-c3ccc4ccn(Cc5cccc(C(=O)O)c5)c4c3)c2)c1	> 20	1.6	1.2	0.8	–
O=C(O)c1cccc(Cn2ccc3ccc(-c4ccc5ccn(Cc6cccc(OC(F)(F)F)c6)c5c4)cc32)c1	> 20	1.4	1.5	2.3	–
COc1cc(Cn2ccc3ccc(-c4ccc5ccn(Cc6cccc(C(=O)O)c6)c5c4)cc32)cc(C(=O)O)c1	> 20	> 20	> 20	0.8	–
CC(C)(C)OC(=O)N1CCc2ccc(-c3ccc4ccn(Cc5cccc(C(=O)O)c5)c4c3)cc21	> 25	2.3	2.8	0.9	–
CC(C)(C)OC(=O)c1cccc(Cn2ccc3ccc(-c4ccc5ccn(Cc6cccc(C(=O)O)c6)c5c4)cc32)c1	> 10	0.2	0.2	0.3	–
Cn1ccc2cc(F)c(-c3ccc4ccn(Cc5cc(F)cc(C(=O)O)c5)c4c3)cc21	> 20	9.7	7.8	2	–

SMILES	CC50 [1] [µM]	IC50 [2] [µM]	IC50 [3] [µM]	Ki [4] [µM]	CC50 [5] [µM]
Cn1ccc2ccc(-c3ccc4c(c3)N(Cc3cccc(C(=O)O)c3)CC4)cc21	> 50	> 25	> 25	10	–
COC(=O)c1cc(Cn2ccc3ccc(-c4ccc5ccn(Cc6cccc(C(=O)O)c6)c5c4)cc32)cc(C(=O)OC)c1	> 20	0.6	0.6	1	–
COC(=O)c1cccc(Cn2ncc3ccc(-c4ccc5ccn(Cc6cccc(C(=O)O)c6)c5c4)cc32)c1	> 50	1.4	1.4	1	–
COc1cccc(CN2CCc3ccc(-c4ccc5ccn(Cc6cccc(C(=O)O)c6)c5c4)cc32)c1	> 25	1.9	2.4	3.6	–
COC(=O)c1cccc(Cn2ccc3cc(F)c(-c4ccc5ccn(Cc6cccc(C(=O)O)c6)c5c4)cc32)c1	> 20	0.5	0.4	0.7	–
COC(=O)c1ccc(Cn2ccc3ccc(-c4ccc5ccn(Cc6cccc(C(=O)O)c6)c5c4)cc32)c(OC)c1	25	4.2	3.1	0.4	25
Cn1ncc2ccc(-c3ccc4cnn(Cc5ccc(F)c(C(=O)O)c5)c4c3)cc21	200	> 20	> 20	19	200
COc1cccc(Cn2ccc3ccc(-c4ccc5c(C)cn(Cc6cccc(C(=O)O)c6)c5c4)cc32)c1	70	10.5	12.9	1.2	70
COC(=O)c1cc(F)cc(Cn2ccc3ccc(-c4ccc5ccn(Cc6cccc(C(=O)O)c6)c5c4)cc32)c1	> 20	0.4	0.5	1	–
Cn1ncc2ccc(-c3ccc4ccn(Cc5cc(F)cc(C(=O)O)c5)c4c3)cc21	> 20	10.1	11.3	2.5	–
O=C(O)c1cccc(Cn2ccc3ccc(-c4ccc5ccn(Cc6cccc([N+](=O)[O-])c6)c5c4)cc32)c1	> 20	2.8	3.4	2.7	–
Cn1ccc2ccc(-c3ccc4ccn(Cc5cc(F)cc(C(=O)O)c5)c4c3)cc21	> 20	8.2	9.1	3	–
CC(=O)Nc1cccc(Cn2ccc3ccc(-c4ccc5ccn(Cc6cccc(C(=O)O)c6)c5c4)cc32)c1	> 20	4.7	4.5	0.9	–
COc1cccc(Cn2ccc3ccc(-c4ccc5cn(Cc6cccc(C(=O)O)c6)nc5c4)cc32)c1	> 20	5.8	5.5	1	–
COc1cccc(Cn2ccc3cc(F)c(-c4ccc5ccn(Cc6cccc(C(=O)O)c6)c5c4)cc32)c1	> 20	9.4	7	5	–
Cc1cn(C(=O)OC(C)(C)C)c2cc(-c3ccc4ccn(Cc5cccc(C(=O)O)c5)c4c3)ccc12	> 20	1.2	1.7	4.7	–
